This assay concerns the target T1, Tec kinase mediated tyrosine phosphorylation of FGF2 (GST-NΔ173 Tec) (Homo sapiens, UniProt P42680).
T1 construct: made in house; host or cells: Tec: SF9 insect cells (baculovirus); FGF2: E. coli
The experiment in a line: In vitro Tec kinase mediated tyrosine phosphorylation of FGF2. The format is biochemical. The conditions noted are these: 50 μM compound in 1% DMSO; FIG. 6C. As for the experimental part: FGF2 tyrosine phosphorylation and Tec kinase auto-phosphorylation were reconstituted with purified components based on a Western analysis using anti-phosphotyrosine antibodies directed against an FGF2-derived phosphopeptide. In vitro phosphorylation experiments were conducted in the absence (1% DMSO mock control) and presence of the small molecule inhibitors (#6, #14, #21; 50 μM in 1% DMSO) and control compounds (#18, #19; 50 μM in 1% DMSO) introduced in FIGS. 4 and 5. Fluorescent secondary antibodies were used to detect antigens employing the LI-COR Odyssey imaging platform. M=PageRuler Prestained Protein Ladder. For details, see Experimental Procedures.
(C) Quantification and statistical analysis of 5 independent experiments using the LI-COR Odyssey imaging platform. Following background normalization, the average of FGF2 tyrosine phosphorylation under mock conditions was defined as 100% activity. Standard deviations are shown. […]
FGF2 and STAP1 tyrosine phosphorylation as well as Tec kinase auto-phosphorylation were analyzed as described in the legend to FIG. 6 and in Experimental Procedures. […] Fluorescent secondary antibodies were used to detect and quantify antigens using the LI-COR Odyssey imaging platform. In panels D, E and F, following normalization based upon background signals detected in the absence of Tec kinase or ATP, the average of the signals detected under mock conditions was defined as 100% activity. […]
A Tec kinase in vitro phosphorylation assay was established to test the inhibitory potential and selectivity of the small molecule inhibitors reported in this study (FIGS. 6 and 7). […] Phosphorylation levels of GST-NΔ173 Tec (auto-phosphorylation), FGF2 and STAP1 were quantified by a Western analysis using polyclonal anti-phosphotyrosine antibodies raised against a FGF2-derived synthetic peptide containing a phosphorylated tyrosine residue (ANRpYLAMKED; SEQ ID NO: 1). […] Phosphorylation levels of STAP1 were monitored using a monoclonal anti-phosphotyrosine antibody (clone 4G10®, #05-321, Merck Millipore). […]

T1 sequence (P42680 174-631, stated change not applied): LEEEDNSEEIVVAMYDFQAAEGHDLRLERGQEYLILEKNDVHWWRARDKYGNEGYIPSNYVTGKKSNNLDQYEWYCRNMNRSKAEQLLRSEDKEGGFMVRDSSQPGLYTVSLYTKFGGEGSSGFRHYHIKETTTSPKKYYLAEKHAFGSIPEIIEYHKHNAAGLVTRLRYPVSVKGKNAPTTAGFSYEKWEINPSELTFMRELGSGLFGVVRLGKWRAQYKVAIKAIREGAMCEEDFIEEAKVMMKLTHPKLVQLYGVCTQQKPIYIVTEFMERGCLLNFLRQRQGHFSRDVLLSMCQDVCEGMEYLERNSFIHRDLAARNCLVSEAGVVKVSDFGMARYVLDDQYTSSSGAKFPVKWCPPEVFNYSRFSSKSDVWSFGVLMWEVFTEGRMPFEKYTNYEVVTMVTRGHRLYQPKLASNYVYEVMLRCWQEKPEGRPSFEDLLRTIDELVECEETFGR

What is called inhibition is the drop in the measured response relative to a control, in per cent. For the compound `COC(=O)c1c(C)[nH]c(C(=O)OCc2cc(=O)n3c(C)cccc3n2)c1C` [compound #6], the inhibition at 50 µM was about 75%.

For `CC(=O)c1c(C)[nH]c(C(=O)OCc2cc(=O)n3cc(Br)ccc3n2)c1C` [compound #14], the “inhibition of FGF2 tyrosine phosphorylation” value is on record as “almost quantitative inhibition”.

On to `CC(=O)c1c(C)[nH]c(C(=O)CSc2nc3cc(Cl)cnc3[nH]2)c1C` [compound #21], for which the “inhibition of FGF2 tyrosine phosphorylation” value was “almost quantitative inhibition”.

The values above are taken from patent publication US10842793B2, “Inhibitors of the unconventional secretion of fibroblast growth factor 2 (FGF2) by tumor cells and uses thereof” (Universität Heidelberg, priority 2016, dated 2020).
